Like-named read-outs stand apart in the source and are kept apart here.
What was measured:
Format in all cases: cell-based
[1] = test system: human immunodeficiency virus-1 (HIV-1); test: anti-HIV MAGI assay; conditions: Human immunodeficiency virus 1, MAGI, anti-HIV
Description: We examined the inhibitory activities of DDPs against various species of bacteria (both gram-negative and gram-positive bacteria), fungi and viruses. […] In contrast, preliminary screening of the DDPs for anti-viral agents with hepatitis B virus (HBV), measles virus (MV), Epstein-Barr virus (EBV), herpes simplex virus (HSV) and human immunodeficiency virus-1 (HIV-1) indicated their selective inhibition of HIV.

DL1 cells = test: cytotoxicity in Drosophila DL1 cells; conditions: DL1 cells; for IC50: Drosophila melanogaster, cytotoxicity
Description: (§1) We screened the DDPs on the Drosophila assay system for cytotoxicity, inhibitory activity of innate immune signalling and insecticidal activity. The cytotoxicity of the DDPs was evaluated using two cell lines, embryonic macrophage-derived DL1 cells[58]–[60] and larval blood cell-derived l(2)mbn cells, and their IC50 values are listed in Supplementary Table 23.

[2] = cytotoxicity in Drosophila DL1 cells; conditions: Drosophila, DL1 cells (embryonic macrophage-derived), DL1 cells
Description: as §1

[3] = average of numeric determinations, read-out: Avg. EC50
[4] = average of two replicates, read-out: IC50 Average
[5] = replicate 1, read-out: IC50 (1)
[6] = replicate 2, read-out: IC50 (2)
[7] = replicate 1, relative to DMSO 1%, read-out: % viability, viability 1
[8] = replicate 2, relative to DMSO 1%, read-out: % viability, viability 2

For C=C1CCC2C(C)(CCC=C(C)C)C(=O)CCC2(C)C1Cc1c(O)c(C)c(C)oc1=O (stereo not drawn) [Compound 8], the EC50 [1, 3] was 23.2 nM, the “Luminescence Raw1” value (DL1 cells; 0.04 µM, replicate 1) was 2594102 and the “Luminescence Raw2” value (DL1 cells; 0.04 µM, replicate 2) was 2999528. The “Luminescence Raw1” value (DL1 cells; 0.2 µM, replicate 1) was 2536752, the “Luminescence Raw2” value (DL1 cells; 0.2 µM, replicate 2) was 2851638 and the “Luminescence Raw1” value (DL1 cells; 1 µM, replicate 1) was 1767451. For the same compound, the “Luminescence Raw2” value (DL1 cells; 1 µM, replicate 2) was 1791254, the “Luminescence Raw1” value (DL1 cells; 4 µM, replicate 1) was 250019 and the “Luminescence Raw2” value (DL1 cells; 4 µM, replicate 2) was 282109. The “Luminescence Raw1” value (DL1 cells; 10 µM, replicate 1) was 313118, the “Luminescence Raw2” value (DL1 cells; 10 µM, replicate 2) was 331147 and the “Luminescence Raw1” value (DL1 cells; 20 µM, replicate 1) was 296893. The “Luminescence Raw2” value (DL1 cells; 20 µM, replicate 2) was 291484, the IC50 (DL1 cells; [4]) was 5020 nM and the IC50 (DL1 cells; average±SEM, read-out: IC50) was 5020 ± 220 nM. For the same compound, the IC50 (DL1 cells; [5]) was 4800 nM, the IC50 (DL1 cells; [6]) was 5240 nM and the viability at 0.04 µM [2, 7] was 189%. It also gave a viability at 0.04 µM [2, 8] of 219%, a viability at 0.2 µM [2, 7] of 185% and a viability at 0.2 µM [2, 8] of 208%. It also gave a viability at 1 µM [2, 7] of 129%, a viability at 1 µM [2, 8] of 131% and a viability at 4 µM [2, 7] of 18.2%. For the same compound, the viability at 4 µM [2, 8] was 20.6%, the viability at 10 µM [2, 7] was 22.8% and the viability at 10 µM [2, 8] was 24.1%. It also gave a viability at 20 µM [2, 7] of 21.6% and a viability at 20 µM [2, 8] of 21.3%.
In the case of C=C1CC[C@H]2[C@]3(C)C[C@H](C=C(C)C)O[C@H]3CC[C@]2(C)[C@@H]1Cc1c(OC)oc(CO)c(C)c1=O [Compound 18], the EC50 ([1]; MAGI assay, read-out: EC50) is reported as < 200 nM, the EC50 [1, 3] is reported as 644 nM and the “Luminescence Raw1” value (DL1 cells; 0.04 µM, replicate 1) is reported as 1968545. For the same compound, the “Luminescence Raw2” value (DL1 cells; 0.04 µM, replicate 2) was 1896774, the “Luminescence Raw1” value (DL1 cells; 0.2 µM, replicate 1) was 1171179 and the “Luminescence Raw2” value (DL1 cells; 0.2 µM, replicate 2) was 1320836. The “Luminescence Raw1” value (DL1 cells; 1 µM, replicate 1) was 154319, the “Luminescence Raw2” value (DL1 cells; 1 µM, replicate 2) was 146747 and the “Luminescence Raw1” value (DL1 cells; 4 µM, replicate 1) was 102038. The “Luminescence Raw2” value (DL1 cells; 4 µM, replicate 2) was 104562, the “Luminescence Raw1” value (DL1 cells; 10 µM, replicate 1) was 106725 and the “Luminescence Raw2” value (DL1 cells; 10 µM, replicate 2) was 129801. The “Luminescence Raw1” value (DL1 cells; 20 µM, replicate 1) was 80404, the “Luminescence Raw2” value (DL1 cells; 20 µM, replicate 2) was 106364 and the IC50 (DL1 cells; [4]) was 254 nM. The IC50 (DL1 cells; average±SEM, read-out: IC50) was 250 ± 20 nM, the IC50 (DL1 cells; [5]) was 236 nM and the IC50 (DL1 cells; [6]) was 272 nM. The viability at 0.04 µM [2, 7] was 95.6%, the viability at 0.04 µM [2, 8] was 92.1% and the viability at 0.2 µM [2, 7] was 56.9%. It also gave a viability at 0.2 µM [2, 8] of 64.1%, a viability at 1 µM [2, 7] of 7.49% and a viability at 1 µM [2, 8] of 7.12%. For the same compound, the viability at 4 µM [2, 7] was 4.95%, the viability at 4 µM [2, 8] was 5.08% and the viability at 10 µM [2, 7] was 5.18%. It also gave a viability at 10 µM [2, 8] of 6.3%, a viability at 20 µM [2, 7] of 3.9% and a viability at 20 µM [2, 8] of 5.16%.
With C=C1CC[C@H]2[C@]3(C)C[C@H](C=C(C)C)O[C@H]3CC[C@]2(C)[C@@H]1Cc1c(O)c(C)c(C)oc1=O [Compound 6, subglutinol B] the EC50 [1, 3] was 757 nM, the “Luminescence Raw1” value (DL1 cells; 0.04 µM, replicate 1) was 2426216 and the “Luminescence Raw2” value (DL1 cells; 0.04 µM, replicate 2) was 2551013. For the same compound, the “Luminescence Raw1” value (DL1 cells; 0.2 µM, replicate 1) was 492518, the “Luminescence Raw2” value (DL1 cells; 0.2 µM, replicate 2) was 1138346 and the “Luminescence Raw1” value (DL1 cells; 1 µM, replicate 1) was 157908. The “Luminescence Raw2” value (DL1 cells; 1 µM, replicate 2) was 170527, the “Luminescence Raw1” value (DL1 cells; 4 µM, replicate 1) was 161874 and the “Luminescence Raw2” value (DL1 cells; 4 µM, replicate 2) was 145288. For the same compound, the “Luminescence Raw1” value (DL1 cells; 10 µM, replicate 1) was 147812, the “Luminescence Raw2” value (DL1 cells; 10 µM, replicate 2) was 152139 and the “Luminescence Raw1” value (DL1 cells; 20 µM, replicate 1) was 149254. The “Luminescence Raw2” value (DL1 cells; 20 µM, replicate 2) was 136274, the IC50 (DL1 cells; [4]) was 234 nM and the IC50 (DL1 cells; average±SEM, read-out: IC50) was 230 ± 70 nM. It also gave an IC50 (DL1 cells; [5]) of 166 nM, an IC50 (DL1 cells; [6]) of 303 nM and a viability at 0.04 µM [2, 7] of 118%. It also gave a viability at 0.04 µM [2, 8] of 124%, a viability at 0.2 µM [2, 7] of 23.9% and a viability at 0.2 µM [2, 8] of 55.3%. It also gave a viability at 1 µM [2, 7] of 7.67%, a viability at 1 µM [2, 8] of 8.28% and a viability at 4 µM [2, 7] of 7.86%. The viability at 4 µM [2, 8] was 7.05%, the viability at 10 µM [2, 7] was 7.18% and the viability at 10 µM [2, 8] was 7.39%. It also gave a viability at 20 µM [2, 7] of 7.25% and a viability at 20 µM [2, 8] of 6.62%.
For C=C1CCC2C3(C)CC(C=C(C)C)OC3CCC2(C)C1Cc1c(OC)oc(C)c(C)c1=O (stereo not drawn) [Compound 23], the EC50 ([1]; MAGI assay, read-out: EC50) was < 200 nM, the “Luminescence Raw1” value (DL1 cells; 0.04 µM, replicate 1) was 1660895 and the “Luminescence Raw2” value (DL1 cells; 0.04 µM, replicate 2) was 2275454. The “Luminescence Raw1” value (DL1 cells; 0.2 µM, replicate 1) was 438070, the “Luminescence Raw2” value (DL1 cells; 0.2 µM, replicate 2) was 571485 and the “Luminescence Raw1” value (DL1 cells; 1 µM, replicate 1) was 158989. For the same compound, the “Luminescence Raw2” value (DL1 cells; 1 µM, replicate 2) was 204060, the “Luminescence Raw1” value (DL1 cells; 4 µM, replicate 1) was 165479 and the “Luminescence Raw2” value (DL1 cells; 4 µM, replicate 2) was 159710. For the same compound, the “Luminescence Raw1” value (DL1 cells; 10 µM, replicate 1) was 101660, the “Luminescence Raw2” value (DL1 cells; 10 µM, replicate 2) was 111756 and the “Luminescence Raw1” value (DL1 cells; 20 µM, replicate 1) was 173772. For the same compound, the “Luminescence Raw2” value (DL1 cells; 20 µM, replicate 2) was 169085, the IC50 (DL1 cells; [4]) was 130 nM and the IC50 (DL1 cells; average±SEM, read-out: IC50) was 130 ± 40 nM. For the same compound, the IC50 (DL1 cells; [5]) was 94 nM, the IC50 (DL1 cells; [6]) was 167 nM and the viability at 0.04 µM [2, 7] was 80.6%. It also gave a viability at 0.04 µM [2, 8] of 110%, a viability at 0.2 µM [2, 7] of 21.3% and a viability at 0.2 µM [2, 8] of 27.7%. For the same compound, the viability at 1 µM [2, 7] was 7.72%, the viability at 1 µM [2, 8] was 9.91% and the viability at 4 µM [2, 7] was 8.03%. It also gave a viability at 4 µM [2, 8] of 7.75%, a viability at 10 µM [2, 7] of 4.94% and a viability at 10 µM [2, 8] of 5.43%. The viability at 20 µM [2, 7] was 8.44% and the viability at 20 µM [2, 8] was 8.21%.
In the case of C=C1CC[C@@H]2[C@](C)(CC[C@H]3O[C@H](C=C(C)C)C[C@@]23C)[C@@H]1Cc1c(O)c(C)c(C)oc1=O [Compound 10, higginsianin A], the EC50 ([1]; MAGI assay, read-out: EC50) is reported as < 200 nM, the EC50 [1, 3] is reported as 53.2 nM and the “Luminescence Raw1” value (DL1 cells; 0.04 µM, replicate 1) is reported as 1703467. The “Luminescence Raw2” value (DL1 cells; 0.04 µM, replicate 2) was 1762974, the “Luminescence Raw1” value (DL1 cells; 0.2 µM, replicate 1) was 745666 and the “Luminescence Raw2” value (DL1 cells; 0.2 µM, replicate 2) was 721146. The “Luminescence Raw1” value (DL1 cells; 1 µM, replicate 1) was 148910, the “Luminescence Raw2” value (DL1 cells; 1 µM, replicate 2) was 134127 and the “Luminescence Raw1” value (DL1 cells; 4 µM, replicate 1) was 98071. The “Luminescence Raw2” value (DL1 cells; 4 µM, replicate 2) was 133046, the “Luminescence Raw1” value (DL1 cells; 10 µM, replicate 1) was 156482 and the “Luminescence Raw2” value (DL1 cells; 10 µM, replicate 2) was 143141. The “Luminescence Raw1” value (DL1 cells; 20 µM, replicate 1) was 118984, the “Luminescence Raw2” value (DL1 cells; 20 µM, replicate 2) was 119705 and the IC50 (DL1 cells; [4]) was 133 nM. It also gave an IC50 (DL1 cells; average±SEM, read-out: IC50) of 130 ± 10 nM, an IC50 (DL1 cells; [5]) of 132 nM and an IC50 (DL1 cells; [6]) of 133 nM. For the same compound, the viability at 0.04 µM [2, 7] was 82.7%, the viability at 0.04 µM [2, 8] was 85.6% and the viability at 0.2 µM [2, 7] was 36.2%. The viability at 0.2 µM [2, 8] was 35%, the viability at 1 µM [2, 7] was 7.23% and the viability at 1 µM [2, 8] was 6.51%. It also gave a viability at 4 µM [2, 7] of 4.76%, a viability at 4 µM [2, 8] of 6.46% and a viability at 10 µM [2, 7] of 7.6%. For the same compound, the viability at 10 µM [2, 8] was 6.95%, the viability at 20 µM [2, 7] was 5.78% and the viability at 20 µM [2, 8] was 5.81%.

Reference: article PMC7156458, “Synthetic biology based construction of biological activity-related library of fungal decalin-containing diterpenoid pyrones” (Nature Communications, 2020)
